Experimental data reported in BindingDB's records for doi:10.1016/j.bmcl.2010.04.113 (Merck Serono, 2010).

Assay: Antagonist activity at human CXCR3 expressed in mouse L1.2 cells assessed as inhibition of IP10-induced chemotaxis after 4 hrs

IC50 [µM]	SMILES
0.94	O=C(NCC1CC1)c1ccc(CN(Cc2cccc(Cl)c2)S(=O)(=O)c2ccc(Cl)cc2)cc1 [4-((4-chloro-N-(3-chlorobenzyl)phenylsulfonamido)methyl)-N-(cyclopropylmethyl)benzamide]
0.085	O=C(NCc1cccc(Cl)c1)c1ccc(CN(Cc2ccccn2)S(=O)(=O)c2ccc(Cl)cc2)cc1 [4-((4-chloro-N-(pyridin-2-ylmethyl)phenylsulfonamido)methyl)-N-(3-chlorobenzyl)benzamide]
1.08	N#Cc1ccc(S(=O)(=O)N(Cc2ccc(C(=O)O)c(F)c2)Cc2ccccn2)cc1 [4-((4-cyano-N-(pyridin-2-ylmethyl)phenylsulfonamido)methyl)-2-fluorobenzoicacid]
5.58	O=C(NCC1CC1)c1ccc(CN(Cc2ccccc2)S(=O)(=O)c2ccc(OC(F)(F)F)cc2)cc1 [4-((N-benzyl-4-(trifluoromethoxy)phenylsulfonamido)methyl)-N-(cyclopropylmethyl)benzamide]
1.99	O=C(NCC1CC1)c1ccc(CN(Cc2ccccc2)S(=O)(=O)c2ccc(Cl)cc2)cc1 [4-((N-benzyl-4-chlorophenylsulfonamido)methyl)-N-(cyclopropylmethyl)benzamide]
2.94	O=C(O)c1ccc(CN(Cc2ccccc2)S(=O)(=O)c2ccc(Cl)cc2)cc1 [4-((N-benzyl-4-chlorophenylsulfonamido)methyl)benzoicacid]
0.673	CCOc1ccc(S(=O)(=O)N(Cc2ccccc2)Cc2ccc(C(=O)NCC3CC3)cc2)cc1 [4-((N-benzyl-4-ethoxyphenylsulfonamido)methyl)-N-(cyclopropylmethyl)benzamide]
0.697	COc1ccc(S(=O)(=O)N(Cc2ccccc2)Cc2ccc(C(=O)NCC3CC3)cc2)cc1 [4-((N-benzyl-4-methoxyphenylsulfonamido)methyl)-N-(cyclopropylmethyl)benzamide]
6.44	COc1ccc(S(=O)(=O)N(Cc2ccccc2)Cc2ccc(C(=O)O)cc2)cc1 [4-((N-benzyl-4-methoxyphenylsulfonamido)methyl)benzoicacid]
0.44	O=S(=O)(c1ccc(Cl)cc1)N(Cc1ccc(-c2nnn[nH]2)c(F)c1)Cc1ccccn1 [4-chloro-N-(3-fluoro-4-(1H-tetrazol-5-yl)benzyl)-N-(pyridin-2-ylmethyl)benzenesulfonamide]
0.911	O=S(=O)(c1ccc(Cl)cc1)N(CCc1cc2ccccc2cn1)Cc1ccc(-c2nnn[nH]2)cc1 [N-(4-(1H-tetrazol-5-yl)benzyl)-4-chloro-N-(2-(isoquinolin-3-yl)ethyl)benzenesulfonamide]
0.54	CCOc1ccc(S(=O)(=O)N(Cc2ccc(-c3nnn[nH]3)cc2)Cc2ccccn2)cc1 [N-(4-(1H-tetrazol-5-yl)benzyl)-4-ethoxy-N-(pyridin-2-ylmethyl)benzenesulfonamide]
0.254	CC(C)(C)c1nc(CCN(Cc2ccc(-c3nnn[nH]3)cc2)S(=O)(=O)c2ccc(Cl)cc2)no1 [N-(4-(1H-tetrazol-5-yl)benzyl)-N-(2-(5-tert-butyl-1,2,4-oxadiazol-3-yl)ethyl)-4-chlorobenzenesulfonamide]
1.15	COc1ccc(S(=O)(=O)N(Cc2ccc(C(=O)NCC3CC3)cc2)Cc2cccnc2)cc1 [N-(cyclopropylmethyl)-4-((4-methoxy-N-(pyridin-3-ylmethyl)phenylsulfonamido)methyl)benzamide]
0.347	COc1ccc(S(=O)(=O)N(Cc2ccccc2)Cc2ccc(C(=O)NCc3ccccc3)cc2)cc1 [N-benzyl-4-((N-benzyl-4-methoxyphenylsulfonamido)methyl)benzamide]
